Assay results taken from article PMC7850479, “A drug repurposing screen identifies hepatitis C antivirals as inhibitors of the SARS-CoV2 main protease” (PLoS ONE, 2021).
Like-named read-outs stand apart in the source and are kept apart here. Residues, ends and D or L forms follow the SMILES beside them.

What was measured:
SARS-CoV-2 Mpro [1] = target: T1, SARS-CoV-2 Mpro (Severe acute respiratory syndrome coronavirus 2, UniProt P0DTD1); test: Dose validation assay (10-point dose-response), fluorescent Mpro protease assay with Ac-Abu-Tle-Leu-Gln-AFC; format: biochemical; details: for IC50 / Hill Slope: 80nM Mpro, 32μM Ac-Abu-Tle-Leu-Gln-AFC, n = 3, 4-parameter nonlinear regression; for IC50: 10 concentrations 150 μM to 7.6 nM
SARS-CoV-2 Mpro [2] = target: T1, SARS-CoV-2 Mpro; format: biochemical
NS3 protease variants = details: HCV NS3 single amino acid mutations; cited from earlier work
HCV protease = details: cited from earlier work
SARS-CoV-2 = details: cellular model of viral replication; read-out: EC50, SARS-CoV-2 antiviral activity; cited from earlier work
Covid-19 patients = tested on: Covid-19 patients; design: method as in PMID 32445440; details: cohort of 1062 patients, placebo control 15 days; cited from earlier work
[3] = Z-score in the protease inhibition assay, ΔRFU at 10 minutes, 50 μM compound, substrate not stated

O=c1c2ccccc2[se]n1-c1ccccc1 [Ebselen]
dose response against Mpro cleavage of substrate Ac-Abu-Tle-Leu-Gln-AFC (SARS-CoV-2 Mpro [1]; result in words, S1 Fig): failed to show a significant dose response

CCOC(=O)c1ccc(N2NC(=O)/C(=C/c3ccc([N+](=O)[O-])o3)C2=O)cc1 [PYR-41]
IC50 (SARS-CoV-2 Mpro [1]): 17.4 µM
Hill Slope (SARS-CoV-2 Mpro [1]): 0.9933

C[C@H](NC(=O)[C@@H](Cc1c[nH]c2ccccc12)NC(=O)[C@@H](N)Cc1cnc[nH]1)C(=O)N[C@@H](Cc1c[nH]c2ccccc12)C(=O)N[C@H](Cc1ccccc1)C(=O)N[C@@H](CCCCN)C(N)=O [U-75799E] (HELM PEPTIDE1{H.[dW].A.W.[dF].K.[am]}$$$$V2.0)
Z10 (SARS-CoV-2 Mpro [2]): 1.044

OC[C@H]1O[C@H]([S-])[C@H](O)[C@@H](O)[C@@H]1O.[Au+] [aurothioglucose]
IC50 (SARS-CoV-2 Mpro [1]): 13.3 µM
Hill Slope (SARS-CoV-2 Mpro [1]): 1.496

CC(C)(C)NC(=O)N[C@H](C(=O)N1C[C@H]2[C@@H]([C@H]1C(=O)NC(CC1CCC1)C(=O)C(N)=O)C2(C)C)C(C)(C)C (stereo partly shown) [boceprevir]
reduction in activity caused by single amino acid mutations (NS3 protease variants): up to 120 fold
IC50 (HCV protease): < 0.09 µM
Hill Slope (SARS-CoV-2 Mpro [1]): 0.4123
reduction in potency against enzymatic activity, SARS-CoV-2 Mpro compared to HCV protease (SARS-CoV-2 Mpro [1]; ~1 μM for Mpro versus below 90 nM for HCV protease): 10 fold
EC50 (SARS-CoV-2): 1.95 ± 1.62 µM

CCCC[C@@H](C=O)NC(=O)[C@H](CC(C)C)NC(=O)OCc1ccccc1 [calpeptin]
Hill Slope (SARS-CoV-2 Mpro [1]): 1.009

COc1ccc2c(O[C@@H]3C[C@H]4C(=O)N[C@]5(C(=O)O)C[C@H]5/C=C\CCCCC[C@H](NC(=O)OC5CCCC5)C(=O)N4C3)cc(-c3csc(NC(C)C)n3)nc2c1 [ciluprevir]
IC50 (SARS-CoV-2 Mpro [1]): 20.8 µM
Hill Slope (SARS-CoV-2 Mpro [1]): 1.133

CC(=O)N(CC(O)CN(C(C)=O)c1c(I)c(C(=O)NCC(O)CO)c(I)c(C(=O)NCC(O)CO)c1I)c1c(I)c(C(=O)NCC(O)CO)c(I)c(C(=O)NCC(O)CO)c1I (stereo not shown) [iodixanol]
Z10 (SARS-CoV-2 Mpro [2]; [3]): -0.9551

CCCC[C@H](NC(=O)[C@@H]1[C@@H]2[C@H](CN1C(=O)[C@@H](NC(=O)NC1(CS(=O)(=O)C(C)(C)C)CCCCC1)C(C)(C)C)C2(C)C)C(=O)C(=O)NC1CC1 [narlaprevir]
Hill Slope (SARS-CoV-2 Mpro [1]): 0.9106

CCC(CC)COC(=O)[C@H](C)N[P@](=O)(OC[C@H]1O[C@@](C#N)(c2ccc3c(N)ncnn23)[C@H](O)[C@@H]1O)Oc1ccccc1 [remdesivir]
period of recovery (Covid-19 patients): 10 days

CCC[C@H](NC(=O)[C@@H]1[C@H]2CCC[C@H]2CN1C(=O)[C@@H](NC(=O)[C@@H](NC(=O)c1cnccn1)C1CCCCC1)C(C)(C)C)C(=O)C(=O)NC1CC1 [telaprevir]
Hill Slope (SARS-CoV-2 Mpro [1]): 1.062

dalargin
Z10 (SARS-CoV-2 Mpro [2]; [3]): -1.032

desmopressin-acetate
Z10 (SARS-CoV-2 Mpro [2]; [3]): -0.4942

hemin
IC50 (SARS-CoV-2 Mpro [1]): 9.68 µM
Hill Slope (SARS-CoV-2 Mpro [1]): 1.354
